Measured values reported in US10155798B2, “Anti-obesity compounds derived from neuromedin U” (The Regents of the University of California, priority 2013, dated 2018).
*1 amine or outer side, *2 acyl side, *3 side chain or, on linkers, in order; H or OH if unused. Where a SMILES comes first, the peptide text is derived from it. Bridges are numbered along the chain shown (N, C = ends). [ ]: non-standard residue; d: D form. The star is where a group is joined. mXylylene(5-CH2SC16H33) = CCCCCCCCCCCCCCCCSCc1cc(C[*:1])cc(C[*:2])c1; X1 = CCCCCCCCCCCCCCCCN(CCCCCCCCCCCCCCCC)CCCCCC(=O)*; Tic = O=C(O)[C@@H]1Cc2ccccc2CN1; Aib = CC(C)(N)C(=O)O; Ahx = NCCCCCC(=O)O

Legend:
[1] = target: T1, NMUR2 (neuromedin U 2 receptor) (Homo sapiens, UniProt Q9GZQ4); assay: Calcium mobilization assay, HEK-NMU2 cells; type: cell-based; settings: HEK293 cells expressing NMU2 receptor, NA = not active
T1 construct: expressed in transfected cells; host or cells: HEK293 (HEK-NMU2)
T1 sequence (Q9GZQ4 whole entry): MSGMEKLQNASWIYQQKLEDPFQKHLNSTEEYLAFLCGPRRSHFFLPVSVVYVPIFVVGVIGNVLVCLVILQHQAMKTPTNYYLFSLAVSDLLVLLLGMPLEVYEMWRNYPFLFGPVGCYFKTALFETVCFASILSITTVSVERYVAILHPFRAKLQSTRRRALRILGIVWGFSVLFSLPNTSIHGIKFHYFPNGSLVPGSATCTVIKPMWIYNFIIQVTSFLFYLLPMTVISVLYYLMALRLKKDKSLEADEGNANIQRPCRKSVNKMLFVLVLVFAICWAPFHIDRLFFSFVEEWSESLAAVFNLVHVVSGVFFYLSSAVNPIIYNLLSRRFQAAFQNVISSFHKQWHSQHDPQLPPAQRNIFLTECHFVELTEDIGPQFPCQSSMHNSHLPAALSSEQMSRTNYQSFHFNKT
Method: (§1) To test whether neuromedin U can be modified/derivatized to yield truncated bioactive compound(s) that may be useful as therapeutics, we synthesized a small library (25 peptides) of hNMU analogs utilizing various stabilization protocols, including: cyclization, lipidation, introduction of α,α-disubstituted and N-methylated amino acids, retro-inverso-approach, and combination of such (see Table 1). Subsequently all analogues were tested against human neuromedin U receptors (NMUR1 and NMUR2) in calcium mobilization assay (collaboration with Dr Gary Willars, University of Leicester, UK).
HEK293 cells expressing either the neuromedin U 1 receptor or neuromedin U 2 receptor (HEK-NMU1 and HEK-NMU2 respectively) were grown to approximately 90% confluence in ELISA strip plates (96-well format) pre-coated with poly-D-lysine (0.1% w/v) and loaded for 45 min at 37° C. with 2 iM fluo-4-AM in Krebs'-HEPES buffer with bovine serum albumin (KHB-BSA; composition: 10 mM HEPES; 4.2 mM NaHCO3; 11.7 mM D-glucose; 1.18 mM MgSO4.7H2O; 1.18 mM KH2PO4; 4.69 mM KCl; 118 mM NaCl; 1.3 mM CaCl2.2H2O; 0.1% (w/v) BSA; pH 7.4). Monolayers were then washed and equilibrated for 5 min at 37° C. in 100 il KHB-BSA for subsequent recording of fluorescence as an index of intracellular [Ca^2+] ([Ca^2+]i) using a microplate reader (NOVOstar; BMG LABTECH, Aylesbury, U.K.). Briefly, 20 μl of KHB-BSA, with or without ligand, was added into the well (200 μl/s) and fluorescence determined at 0.5 s intervals by excitation at 485 nm and collection of emitted light at 520 nm. Changes in fluorescence above basal levels (before ligand addition) were determined. […] Fmax was obtained by removal of buffer and addition of KHB-BSA buffer containing 4 mM [Ca^2+] and ionomycin (2 μM) to representative wells and the fluorescence measured for 10 min. Fmin was then derived by replacing buffer with Ca^2+-free KHB-BSA buffer containing 2 mM EGTA and fluorescence measured for 10 min. For the determination of concentration-response relationships, the maximal change in [Ca^2+]i was calculated following ligand addition. Concentration-response curves were then fitted using a four-parameter logistic equation to determine EC50 values (GraphPad Software Inc., Calif.).

[2] = target: T2, NMUR1 (neuromedin U 1 receptor) (Homo sapiens, UniProt Q9HB89); assay: Calcium mobilization assay, HEK-NMU1 cells; type: cell-based; settings: HEK293 cells expressing NMU1 receptor, NA = not active
T2 construct: expressed in transfected cells; host or cells: HEK293 (HEK-NMU1)
T2 sequence (Q9HB89 1-426): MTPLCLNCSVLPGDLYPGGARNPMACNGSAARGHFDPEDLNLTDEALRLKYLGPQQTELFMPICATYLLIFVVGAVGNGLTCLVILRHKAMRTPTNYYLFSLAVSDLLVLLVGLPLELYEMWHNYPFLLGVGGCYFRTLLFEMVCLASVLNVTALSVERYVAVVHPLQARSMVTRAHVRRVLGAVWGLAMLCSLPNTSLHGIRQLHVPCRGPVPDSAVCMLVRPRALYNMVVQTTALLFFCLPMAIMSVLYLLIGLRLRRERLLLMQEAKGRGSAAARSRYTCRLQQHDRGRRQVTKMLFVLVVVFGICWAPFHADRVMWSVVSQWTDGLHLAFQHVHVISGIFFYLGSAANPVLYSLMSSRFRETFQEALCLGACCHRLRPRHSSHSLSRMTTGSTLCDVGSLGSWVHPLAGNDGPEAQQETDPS
Method: as §1
HEK293 cells expressing either the neuromedin U 1 receptor or neuromedin U 2 receptor (HEK-NMU1 and HEK-NMU2 respectively) were grown to approximately 90% confluence in ELISA strip plates (96-well format) pre-coated with poly-D-lysine (0.1% w/v) and loaded for 45 min at 37° C. with 2 iM fluo-4-AM in Krebs'-HEPES buffer with bovine serum albumin (KHB-BSA; composition: 10 mM HEPES; 4.2 mM NaHCO3; 11.7 mM D-glucose; 1.18 mM MgSO4.7H2O; 1.18 mM KH2PO4; 4.69 mM KCl; 118 mM NaCl; 1.3 mM CaCl2.2H2O; 0.1% (w/v) BSA; pH 7.4). Monolayers were then washed and equilibrated for 5 min at 37° C. in 100 il KHB-BSA for subsequent recording of fluorescence as an index of intracellular [Ca^2+] ([Ca^2+]i) using a microplate reader (NOVOstar; BMG LABTECH, Aylesbury, U.K.). […]

[3] = tested on: male DIO C57BL/6 mice; assay: Chronic in vivo experiments in DIO mice (body weight, food intake, gastric emptying); parameters: species or system mouse; settings: for gastric emptying in experimental animals: s.c. 1603 nMole/kg, chronic regimen
Method: FIG. 4. Anorectic effects of NM4A in chronic in vivo experiments. (A) Ad libitum fed male DIO C57BL/6 mice were treated with either vehicle or NM4A (2.2 mg/kg; 1603 nMole/kg) every 2, 4 or 7 days for 21 days. (B) Ad libitum fed male DIO C57BL/6 mice were treated with either vehicle or NM4A (2.2 mg/kg; 1603 nMole/kg) once a week for 21 days. After initial treatment animals were kept either on high-fat diet (FD) or normal diet (ND).
FIG. 6. (A) Comparison of anorectic effects of NM4A & NM4-C16 analogs in chronic in vivo experiments. Ad libitum fed male DIO C57BL/6 mice were treated with either vehicle or NM4A (2.2 mg/kg; 1603 nMole/kg) or NM4-C16 (2.6 mg/kg; 1603 nMole/kg) every 7 days for 21 days. (B) Food intake of animals treated with NM4-C16 (2.6 mg/kg; 1603 nMole/kg) every 7 days for 21 days.
NM4A was characterized further in in vivo chronic experiments. Ad libitum fed male DIO C57BL/6 mice, which were kept on the high fat diet (Cat #D12492, Research Diets, Inc., New Brunswick, N.J.), were treated subcutaneously (s.c.) with either vehicle or NM4A (2.2 mg/kg; 1603 nMole/kg) either every 2, 4 or 7 days for 21 days. […] To determine whether NM4A can be used as an auxiliary in dieting of the obese subjects we tested its efficiency in once weekly regimen at the 2.2 mg/kg dose. In this case, ad libitum fed male DIO C57BL/6 mice were kept either on the high fat diet (FD) or regular diet (ND) during NM4A's administration.
(§2) Despite limited success with our “double-lipidation” approach, we decided to test NM4-C16 analog in vivo using once weekly subcutaneous injection regimen at the 2.6 mg/kg dose, which is equimolar to previously used NM4A dose (e.g. 1603 nMole/kg).
All animal experiments were approved by the UCLA Animal Care and Use Committee (ARC #1999-173-23) and conformed to local and national guidelines. Ad libitum fed male DIO C57BL/6 mice (n=8 per group) kept on D12492, a high-fat diet composed of 60% Kcal from fat (Research Diets, Inc., New Brunswick, N.J.) were weighed and individually dosed (s.c., 30 min prior to the onset of the dark phase of the light cycle) with either vehicle or NM4A (2.2 mg/kg; 1603 nMole/kg) every 2 days or NM4A (2.2 mg/kg; 1603 nMole/kg) every 4 days or NM4A (2.2 mg/kg; 1603 nMole/kg) every 7 days or NM4-C16 (2.6 mg/kg; 1603 nMole/kg) every 7 days for 21 days and their food intake and body weight were measured daily. […] Briefly, calculated amount of the desired peptide (1 eq) and 10 equivalents of PUREBRIGHT® SL-220 (1 mg: 10 mg) were solubilized in minimal volume of 90% absolute ethyl alcohol in water. Subsequently solution was aliquoted into Eppendorf tubes and freeze-dried. Obtained solid residue was re-solubilized in the proper amount of PBS directly before use by vortexing.

[4] = tested on: male DIO C57BL/6 mice; assay: Abdominal fat evaluation of chronically treated animals; type: in vivo, mouse; settings: chronic treatment 21 days, 1603 nMole/kg; vehicle ~8%
Method: (§3) FIG. 7. (A) Abdominal fat evaluation of chronically treated animals. Ad libitum fed male DIO C57BL/6 mice were treated with either vehicle or NM4A (2.2 mg/kg; 1603 nMole/kg) every 2 days or NM4A (2.2 mg/kg; 1603 nMole/kg) every 4 days or ^(*)NM4-C16 (2.6 mg/kg; 1603 nMole/kg) every 7 days for 21 days. Subsequently, their abdominal fat was harvested and weighted. Results are expressed as % of abdominal fat per total body weight. (B) Distribution of NM4A in NM4A chronically treated animals (2.2 mg/kg; every 2 days for 28 days).
For three groups of animals treated every 2, 4 and 7 days we also performed abdominal fat evaluation (FIG. 7A).

[5] = Water solubility; type: physicochemical
[6] = tested on: male DIO C57BL/6 mice; assay: Hematological parameters of animals treated with NM4-C16; type: in vivo, mouse; settings: 2.6 mg/kg every 7 days for 21 days
Method: as §2

[7] = tested on: diet induced obese (DIO) mouse model; assay: Single dose in vivo anorectic experiments in DIO mouse model; settings: DIO mice
Excerpt: FIG. 3. Single dose in vivo experiments performed in DIO mouse model. (A) Comparison of anorectic effects of NM4 and NM7. (B) NM4 dose response experiments. (C) Comparison of NM4 and NM4A anorectic activity.
Initially we focused on single dose experiments comparing NM4 and NM7 at 5344 nMole/kg dose (FIG. 3).

[8] = Body distribution of NM4A in chronically treated animals; type: in vivo, mouse; settings: 2.2 mg/kg every 2 days for 28 days
Method: as §3
To test body distribution of NM-analogs we performed also limited ADME studies in animals that underwent chronic treatment with NM4A every 2 days for 28 days (2.2 mg/kg; 1603 nMole/kg dose).
Ad libitum fed male DIO C57BL/6 mice that underwent chronic treatment with NM4A (2.2 mg/kg; 1603 nMole/kg; dosing every 2 days for 28 days) were sacrificed and their organs/tissues harvested and weighted. […] Obtained homogenate(s) were transferred to 1.5 mL Eppendorf tubes and centrifuged for 10 min at 13000 rpm.

Structure (SMILES) | EC50 [1] | EC50 [2] | body weight, once-weekly administration ([3]; s.c. 2.6 mg/kg (1603 nMole/kg) every 7 days for 21 days) | gastric emptying in experimental animals [3] | abdominal fat content (% of abdominal fat per total body weight) [4] | water solubility [5] | hematological parameters/blood cell count [6] | duration of anorectic effects after single dose administration ([7]; 1603 nMole/kg, 2.2 mg/kg) | in vivo activity relative to NM4 ([7]; single dose, FIG. 3C) | body weight, once weekly regimen as auxiliary in dieting ([3]; 2.2 mg/kg once a week for 21 days, high fat diet (FD) or regular diet (ND)) | anorectic effects, chronic treatment ([3]; s.c. 2.2 mg/kg every 2 and every 4 days for 21 days, high fat diet) | anorectic effects, chronic treatment, less frequent dosage ([3]; s.c. 2.2 mg/kg every 7 days for 21 days, high fat diet) | entry into the brain [8] | tissue with highest content [8]
CC(C)C[C@H](NC(=O)[C@H](Cc1ccccc1)NC(=O)CCCCCNC(=O)[C@@H](N)CS)C(=O)N[C@@H](Cc1ccccc1)C(=O)N[C@@H](CCCNC(=N)N)C(=O)N1Cc2ccccc2C[C@H]1C(=O)N[C@@H](CCCNC(=N)N)C(=O)N[C@@H](CC(N)=O)C(=O)NCCCCCC(=O)N[C@@H](CS)C(N)=O [NM10, C-Ahx-FL-Phe-Arg-Tic-R-Asn-Ahx-C] (H-C[Ahx]FLFR[Tic]RN[Ahx]C-NH2) | 2690 nM | 3980 nM |  |  |  |  |  |  |  |  |  |  |  | 
CCCCCCCCCCCCCCCCSCc1cc2cc(c1)CSC[C@H](N)C(=O)NCCCCCC(=O)N[C@@H](Cc1ccccc1)C(=O)N[C@@H](CC(C)C)C(=O)N[C@@H](Cc1ccccc1)C(=O)N[C@@H](CCCNC(=N)N)C(=O)N1Cc3ccccc3C[C@H]1C(=O)N[C@@H](CCCNC(=N)N)C(=O)N[C@@H](CC(N)=O)C(=O)NCCCCCC(=O)N[C@H](C(N)=O)CSC2 [NM16, PalS-X(C-Ahx-FL-Phe-Arg-Tic-R-Asn-Ahx-C)] (H-C[Ahx]FLFR[Tic]RN[Ahx]C-NH2; linker 1-11 via mXylylene(5-CH2SC16H33)) |  | 3980 nM |  |  |  |  |  |  |  |  |  |  |  | 
CCCCCCCCCCCCCCCCN(CCCCCCCCCCCCCCCC)CCCCCC(=O)NC(C)(C)C(=O)N[C@@H](Cc1ccccc1)C(=O)N[C@@H](CC(C)C)C(=O)N[C@@H](Cc1ccccc1)C(=O)N[C@@H](CCCNC(=N)N)C(=O)N1CCC[C@H]1C(=O)N[C@@H](CCCNC(=N)N)C(=O)N[C@@H](CC(N)=O)C(N)=O [Peptide M4-C16, (c16)2-Ahx-Aib-FL-Phe-Arg-Pro-R-Asn] (X1-[Aib]FLFRPRN-NH2) | 741 ± 32 nM |  | sustained weight loss | very limited gastric emptying | ~5% | limited water solubility | appears to be normal |  |  |  |  |  |  | 
CCCCCCCCCCCCCCCCNC(=O)CNCC(=O)NC(C)(C)C(=O)N[C@@H](Cc1ccccc1)C(=O)N[C@@H](CC(C)C)C(=O)N[C@@H](Cc1ccccc1)C(=O)N[C@@H](CCCNC(=N)N)C(=O)N1CCC[C@H]1C(=O)N[C@@H](CCCNC(=N)N)C(=O)N[C@@H](CC(N)=O)C(N)=O [Peptide M4A, Ida^NHPal-Aib-FL-Phe-Arg-Pro-R-Asn] | 6.46 ± 0.89 nM |  |  | causes initially gastric emptying | ~5% | limited water solubility |  | ≤ 20 days | at least 3.5 times | additional body weight decrease | potent anorectic effects | limited activity | does not appear to enter the brain effectively | highest content of NM4A is detected in plasma
